# Experimental data published in ChEMBL document CHEMBL1147551, “Synthesis and inhibition of Src kinase activity by 7-ethenyl and 7-ethynyl-4-anilino-3-quinolinecarbonitriles” (Bioorg Med Chem Lett, 2004).
# Legend:
# Rattus norvegicus [1] = species on record: Rattus norvegicus; test: Inhibitory activity against Src-dependent cell proliferation assay using rat fibroblasts
# [2] = target: Proto-oncogene tyrosine-protein kinase Src (Homo sapiens, UniProt P12931); test: Enzyme inhibitory activity against recombinant human Src protein tyrosine kinase
# Sequence of Proto-oncogene tyrosine-protein kinase Src (P12931 2-536 limits assumed): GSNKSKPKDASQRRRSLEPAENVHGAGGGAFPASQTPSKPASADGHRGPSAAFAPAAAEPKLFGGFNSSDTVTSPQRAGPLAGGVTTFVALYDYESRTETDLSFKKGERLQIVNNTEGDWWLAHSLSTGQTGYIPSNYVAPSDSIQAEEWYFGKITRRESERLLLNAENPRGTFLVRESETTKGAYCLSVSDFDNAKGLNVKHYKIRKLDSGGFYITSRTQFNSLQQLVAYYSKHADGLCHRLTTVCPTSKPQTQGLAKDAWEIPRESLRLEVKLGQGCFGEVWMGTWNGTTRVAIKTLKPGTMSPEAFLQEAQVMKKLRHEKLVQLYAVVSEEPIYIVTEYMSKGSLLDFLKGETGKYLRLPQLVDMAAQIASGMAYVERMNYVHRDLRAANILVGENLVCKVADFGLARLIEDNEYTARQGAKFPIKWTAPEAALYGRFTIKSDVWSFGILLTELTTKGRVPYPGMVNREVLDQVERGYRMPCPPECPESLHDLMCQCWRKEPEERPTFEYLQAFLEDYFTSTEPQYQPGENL
# Rattus norvegicus [3] = species on record: Rattus norvegicus; test: Inhibitory activity against Src-dependent cell proliferation assay, using rat fibroblasts; format: functional
IC50 [2] [nM],Structure (SMILES),IC50 (Rattus norvegicus [1]) [nM],Inhibition (Rattus norvegicus [3]) [%]
97,C=Cc1ccc2c(Nc3cc(OC)c(Cl)cc3Cl)c(C#N)cnc2c1,9300,
19,COc1cc(Nc2c(C#N)cnc3cc(/C=C/c4ccccn4)ccc23)c(Cl)cc1Cl,,50
65,COc1cc(Nc2c(C#N)cnc3cc(/C=C/c4ccccc4)c(OC)cc23)c(Cl)cc1Cl,1500,
12000,CCOC(=O)c1cnc2cc(/C=C/c3ccncc3)ccc2c1Nc1ccc(Cl)cc1Cl,> 10000,
15,COc1cc(Nc2c(C#N)cnc3cc(/C=C/c4cccnc4)ccc23)c(Cl)cc1Cl,230,
1600,O=C(O)c1cnc2cc(/C=C/c3ccncc3)ccc2c1Nc1ccc(Cl)cc1Cl,> 10000,
2300,COc1cc(Nc2c(C#N)cnc3cc(/C=C/c4ccc(-c5ccccc5)cc4)ccc23)c(Cl)cc1Cl,> 10000,
57,COc1cc(Nc2c(C#N)cnc3cc(C#Cc4ccccc4)c(OC)cc23)c(Cl)cc1Cl,3000,
420,COc1cc(Nc2c(C#N)cnc3cc(C#Cc4ccc(-c5ccccc5)cc4)ccc23)c(Cl)cc1Cl,> 10000,
320,COc1cc(Nc2c(C#N)cnc3cc(C#Cc4ccccc4)ccc23)c(Cl)cc1Cl,> 10000,
530,COc1cc(Nc2c(C#N)cnc3cc(C#Cc4ccccn4)ccc23)c(Cl)cc1Cl,> 10000,
,COc1cc(Nc2c(C#N)cnc3cc(C#Cc4cccnc4)ccc23)c(Cl)cc1Cl,650,
,COc1cc(Nc2c(C#N)cnc3cc(/C=C/c4ccncc4)c(OC)cc23)c(Cl)cc1Cl,80,
380,N#Cc1cnc2cc(/C=C/c3ccncc3)ccc2c1Oc1ccc(Cl)cc1Cl,7200,
83,COc1cc(Nc2c(C#N)cnc3cc(C#Cc4ccncc4)ccc23)c(Cl)cc1Cl,2700,
3100,CCOc1cc(Nc2c(C#N)cnc3cc(/C=C/c4ccncc4)ccc23)c(Cl)cc1Cl,> 10000,
,N#Cc1cnc2cc(/C=C/c3ccncc3)ccc2c1Nc1ccc(Cl)cc1Cl,1200,
1000,N#Cc1cnc2cc(/C=C/c3ccncc3)ccc2c1NCc1ccc(Cl)cc1Cl,> 10000,
,COc1cc(Nc2c(C#N)cnc3cc(C#Cc4cccnc4)c(OC)cc23)c(Cl)cc1Cl,270,
180,COc1cc(Nc2c(C#N)cnc3cc(/C=C/c4ccccc4)ccc23)c(Cl)cc1Cl,2700,
,COc1cc(Nc2c(C#N)cnc3cc(CCc4ccncc4)ccc23)c(Cl)cc1Cl,> 10000,
8.4,COc1cc(Nc2c(C#N)cnc3cc(/C=C/c4cccnc4)c(OC)cc23)c(Cl)cc1Cl,140,
320,COc1cc(Nc2c(C#N)cnc3cc(/C=C/c4ccc5ccccc5c4)ccc23)c(Cl)cc1Cl,> 10000,
,COc1cc(Nc2c(C#N)cnc3cc(/C=C/c4ccncc4)ccc23)c(Cl)cc1Cl,230,
200,N#Cc1cnc2cc(C#Cc3cccnc3)ccc2c1Nc1ccc(Cl)cc1Cl,3900,
